Consider 30 compounds from EP4631938A1, “NITROGEN-CONTAINING HETEROCYCLE WITH SEROTONIN RECEPTOR-BINDING ACTIVITY AND CARBOCYCLIC DERIVATIVE” (Shionogi & Co., Ltd, priority 2022, dated 2024).

The structures appear in SMILES notation. Read-outs that look alike come from different tables or passages of the source.

Test [1] has as its target T1, human recombinant 5-HT2A receptor (Homo sapiens, UniProt P28223).
T1 construct: expressed in transfected cells; host or cells: Jump-In HEK cells (membrane preparation)
Kind of test: Test Example 1-2: 5-HT2A receptor binding inhibition test ([3H]-Ketanserin; non-specific ligand Ketanserin). Here is the method:
The Kd value is calculated when the lot of the cell membrane is changed. 1 mmol/L non-specific binding calculating compound dissolved in DMSO or DMSO is previously dispensed to the microplate by 0.5 µL, and the cell membrane is diluted with an Assay buffer. The radioactive ligand solution is diluted step by step, and counts are checked with a liquid scintillator. The Assay buffer containing diluted cell membranes is dispensed by 50 µL/well into the microplate. The radioactive ligand solution is then dispensed by 50 µL/well into the microplate and the plate is sealed. The microplate is allowed to stand for 1.5 hours at room temperature (25°C). During this time, 50 mmol/L Tris-HCl (pH 7.4) is dispensed by 50 µL/well into the UniFilter plate and allowed to stand at 4°C for 1 hour or longer. Thereafter, filtration is performed with a Cell Harvester (PerkinElmer). The radioactive ligand solution is dispensed by 10 µL/well into empty wells of the UniFilter plate. After drying the UniFilter plate at room temperature, MicroScinti20 is dispensed by 50 µL/well into the UniFilter plate, and the plate is sealed. UniFilter plate is allowed to stand at room temperature overnight. The radioactivity of [^3H]-Ketanserin bound to the 5-HT2A receptor is measured using Microbeta2 (PerkinElmer) at a measurement time of 1 min/well. The Saturation curve is drawn from the measured value, and the Kd value is calculated from the slope of the Scatchard Plot.
A compound solution dissolved in DMSO is dispensed to a microplate by 0.5 µL, and a cell membrane and a hot ligand are each diluted with an Assay buffer. The Assay buffer containing diluted cell membrane is then dispensed by 50 µL/well into the microplate. The radioactive ligand solution is then dispensed by 50 µL/well into the microplate and the plate is sealed. Thereafter, the microplate is allowed to stand at room temperature (25°C) for 1.5 hours. During this time, 50 mmol/L Tris-HCl (pH 7.4) is dispensed by 50 µL/well into the UniFilter plate and allowed to stand at 4°C for 1 hour or longer. Thereafter, filtration is performed with a Cell Harvester (PerkinElmer). After drying the UniFilter plate at room temperature, MicroScinti20 is dispensed by 50 µL/well into the UniFilter plate, and the plate is sealed. UniFilter plate is allowed to stand at room temperature overnight. The radioactivity of [^3H]-Ketanserin bound to the 5-HT2A receptor is measured using Microbeta2 (PerkinElmer) at a measurement time of 1 min/well. Non-specific binding is calculated from the radioactivity of [^3H]-Ketanserin in the presence of 500 µmol/L Ketanserin of unlabeled ligand, and total binding is calculated from the radioactivity of [^3H]-Ketanserin in the absence of the compound of the present invention (Vehicle). Finally, the Ki value is calculated from the dose-response curve.
(§1) (The binding activity of the compound according to the present invention is calculated from the following binding inhibition rate (%).) Inhibition rate (%) = [1−(c−a)/(b−a)] × 100 [formula] • a; average cpm of non-specific binding • b; average cpm of total binding • c; cpm in the presence of the test compound
(§2) The compounds of the present invention were tested essentially as described above.

Test [2] deals with T2, human recombinant 5-HT2C receptor (Homo sapiens, UniProt P28335).
T2 construct: expressed in transfected cells; host or cells: Jump-In HEK cells (membrane preparation)
T2 sequence (P28335 33-458): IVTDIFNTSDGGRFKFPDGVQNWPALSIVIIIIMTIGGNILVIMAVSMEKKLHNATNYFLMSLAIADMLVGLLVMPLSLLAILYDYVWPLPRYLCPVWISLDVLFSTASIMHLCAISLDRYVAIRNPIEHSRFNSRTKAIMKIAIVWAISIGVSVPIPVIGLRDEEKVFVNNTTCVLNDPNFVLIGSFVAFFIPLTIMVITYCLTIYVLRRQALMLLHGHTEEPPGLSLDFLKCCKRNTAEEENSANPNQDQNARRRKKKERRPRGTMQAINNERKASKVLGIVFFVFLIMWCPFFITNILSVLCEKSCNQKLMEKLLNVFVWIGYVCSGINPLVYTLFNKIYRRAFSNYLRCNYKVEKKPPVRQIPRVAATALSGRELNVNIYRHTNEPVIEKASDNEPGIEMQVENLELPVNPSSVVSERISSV
The test is described as follows: Test Example 2: 5-HT2C receptor binding inhibition test ([3H]-Mesulergine; non-specific ligand Serotonin HCl). Conditions: human serotonin 5-HT2C receptor binding activity. Here is the method: The Kd value is calculated when the lot of the cell membrane is changed. 1 mmol/L non-specific binding calculating compound dissolved in DMSO or DMSO is previously dispensed to the microplate by 0.5 µL, and the cell membrane is diluted with an Assay buffer. The radioactive ligand solution is diluted step by step, and counts are checked with a liquid scintillator. The Assay buffer containing diluted cell membranes is dispensed by 50 µL/well into the microplate. The radioactive ligand solution is then dispensed by 50 µL/well into the microplate and the plate is sealed. The microplate is allowed to stand at 37°C for 2 hours. During this time, 50 mmol/L Tris-HCl (pH 7.4) is dispensed by 50 µL/well into the GF/B UniFilter plate and allowed to stand at 4°C for 1 hour or longer. Thereafter, filtration is performed with a Cell Harvester (PerkinElmer). The radioactive ligand solution is dispensed by 10 µL/well into empty wells of the GF/B UniFilter plate. After drying the GF/B UniFilter plate at room temperature, MicroScinti20 is dispensed by 50 µL/well into the GF/B UniFilter plate, and the plate is sealed. GF/B UniFilter plate is allowed to stand at room temperature overnight. The radioactivity of [^3H]-Mesulergine bound to the 5-HT2C receptor is measured using Microbeta2 (PerkinElmer) at a measurement time of 1 min/well. The Saturation curve is drawn from the measured value, and the Kd value is calculated from the slope of the Scatchard Plot.
A compound solution dissolved in DMSO is dispensed to a microplate by 0.5 µL, and a cell membrane and a hot ligand are each diluted with an Assay buffer. The Assay buffer containing diluted cell membrane is then dispensed by 50 µL/well into the microplate. The radioactive ligand solution is then dispensed by 50 µL/well into the microplate and the plate is sealed. The microplate is then allowed to stand at 37°C for 2 hours. During this time, 50 mmol/L Tris-HCl (pH 7.4) is dispensed by 50 µL/well into the GF/B UniFilter plate and allowed to stand at 4°C for 1 hour or longer. Thereafter, filtration is performed with a Cell Harvester (PerkinElmer). After drying the GF/B UniFilter plate at room temperature, MicroScinti20 is dispensed by 50 µL/well into the GF/B UniFilter plate, and the plate is sealed. GF/B UniFilter plate is allowed to stand at room temperature overnight. The radioactivity of [^3H]-Mesulergine bound to the 5-HT2C receptor is measured using Microbeta2 (PerkinElmer) at a measurement time of 1 min/well. Non-specific binding is calculated from the radioactivity of [^3H]-Mesulergine in the presence of 500 µmol/L Serotonin HCl of unlabeled ligand, and total binding is calculated from the radioactivity of [^3H]-Mesulergine in the absence of the compound of the present invention (Vehicle). Finally, the Ki value is calculated from the dose-response curve.
as §1, §2

Where [3] appears, read: [3H]-Ketanserin, non-specific binding with 500 µmol/L Ketanserin, room temperature (25°C), 1.5 hours, read-out: h 5-HT2A Ki.

T1 sequence (P28223 whole entry): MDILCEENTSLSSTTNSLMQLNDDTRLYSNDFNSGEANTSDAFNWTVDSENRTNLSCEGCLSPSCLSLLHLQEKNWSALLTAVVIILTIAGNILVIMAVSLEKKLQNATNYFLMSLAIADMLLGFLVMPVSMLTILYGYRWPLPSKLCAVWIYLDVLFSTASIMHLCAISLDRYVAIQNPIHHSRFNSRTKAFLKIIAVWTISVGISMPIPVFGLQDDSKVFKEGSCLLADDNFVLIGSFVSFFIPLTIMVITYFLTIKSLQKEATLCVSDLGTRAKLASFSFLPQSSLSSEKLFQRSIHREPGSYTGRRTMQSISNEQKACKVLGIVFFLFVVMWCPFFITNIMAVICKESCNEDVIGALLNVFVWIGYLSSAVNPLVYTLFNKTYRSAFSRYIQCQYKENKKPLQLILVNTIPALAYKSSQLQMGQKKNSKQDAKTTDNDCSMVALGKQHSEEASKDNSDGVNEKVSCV

Broadly, the Ki is the dissociation constant of the complex between target and ligand, obtained from inhibition or displacement. `COCc1nc(C)c(-c2cc(Nc3ncc(-c4ccnc(C(F)(F)F)c4)cc3Cl)ncc2OCCO)c(C)n1` [Compound I-246]: the results for the inhibition constant (Ki) in test [1] (setting [3]) and in test [2] were 2.7 nM and 5.25 nM, respectively.

Regarding `Cc1nc(C)c(-c2cc(Nc3ncc(Cl)cc3F)c(F)cc2OCCO)c(C)n1` [Compound I-166], the Ki worked out at 0.67 nM in test [1] (setting [3]) and 5.57 nM in test [2].

Take `COc1cnc(Nc2cc(-c3c(Cl)cnn3C)c(OCCO)cc2F)nc1` [Compound I-169]: the Ki in test [1] (setting [3]) came to 0.738 nM; in test [2], 9.97 nM.

On to `Cc1cc(Nc2ncc(OCCO)c(-c3c(Br)cnn3C)n2)ccc1Cl` [Compound I-348], for which the inhibitory constant (Ki) in test [1] (setting [3]) was 0.215 nM; in test [2], 6.11 nM.

As to `Cn1ncc(Br)c1-c1cc(Nc2ncc(Cl)cn2)ncc1OCCO` [Compound I-274], the Ki in test [1] (setting [3]) was 0.219 nM; in test [2] it was 4.5 nM.

Turning to `CCc1ncccc1-c1cc(Nc2ncc(C(F)(F)F)cc2F)ncc1OCCO` [Compound I-367], the Ki was found to be 1.97 nM in test [1] (setting [3]) and 64.9 nM in test [2].

`Cn1ncc(Cl)c1-c1cc(Nc2ncc(F)cc2F)c(F)cc1OCCO` [Compound I-164]: the inhibitory constant (Ki) in test [1] (setting [3]) was 0.325 nM; in test [2] it was 2.09 nM.

Regarding `Cc1nc(C)c(-c2cc(Nc3ccc(Oc4ccc(F)cc4)cn3)ncc2OCCO)c(C)n1` [Compound I-308], the Ki in test [1] (setting [3]) worked out at 0.575 nM; in test [2] it was 9.45 nM.

For `Cn1ncc(Cl)c1-c1cc(Nc2ncc(C(F)(F)F)cc2F)c(Cl)cc1OCCO` [Compound I-409], the Ki worked out at 0.42 nM in test [1] (setting [3]) and 2.12 nM in test [2].

With `Cn1ncc(Br)c1-c1nc(Nc2ccc(C(F)(F)F)nc2)ncc1OCCO` [Compound I-349], the values for the Ki in test [1] (setting [3]) and in test [2] were 0.254 nM and 47.7 nM, respectively.

Take `Cn1ncc(Cl)c1-c1cc(Nc2ncc(Cl)cn2)c(F)cc1OCCO` [Compound I-162]: the Ki in test [1] (setting [3]) was found to be 0.395 nM; in test [2] it was 4.25 nM.

Turning to `Cn1ncc(Br)c1-c1cc(Nc2ncc(OC(F)(F)F)cc2F)ncc1OCCO` [Compound I-287], the Ki in test [1] (setting [3]) is 0.28 nM; in test [2], 0.266 nM.

As for `Cc1nc(C)c(-c2cc(Nc3ncc(OC(F)(F)F)cc3Cl)ncc2OCCO)c(C)n1` [Compound I-270], the results for the Ki in test [1] (setting [3]) and in test [2] were 0.938 nM and 2.74 nM, respectively.

Take `Cn1ncc(Br)c1-c1cc(Nc2ccc(C(F)F)nn2)c(F)cc1OCCO` [Compound I-403]: the Ki in test [1] (setting [3]) came out at 0.565 nM; in test [2], 29.9 nM.

Take `COCc1nc(C)c(-c2cc(Nc3ncc(C4CC(F)(F)C4)cc3Cl)ncc2OCCO)c(C)n1` [Compound I-195]: the results for the Ki in test [1] (setting [3]) and in test [2] were 6.75 nM and 2.1 nM, respectively.

In the case of `Cn1ncc(Br)c1-c1cc(Nc2ccc(OC(F)(F)F)cn2)ncc1OCCO` [Compound I-277], the results for the Ki in test [1] and in test [2] were 0.186 nM and 0.217 nM, respectively.

In the case of `Cc1nc(C)c(-c2cc(Nc3ncc(C(F)(F)F)cc3C)c(F)cc2OCCO)c(C)n1` [Compound I-175], the results for the Ki in test [1] (setting [3]) and in test [2] were 1.92 nM and 3.19 nM, respectively.

Turning to `Cn1ncc(Cl)c1-c1cc(Nc2ncc(OC(F)(F)F)cn2)ncc1OCCO` [Compound I-312], the Ki worked out at 0.252 nM in test [1] (setting [3]) and 4.82 nM in test [2].

For the compound `Cc1nc(C)c(-c2nc(Nc3ccc(OC(F)F)cc3)c(F)cc2OCCO)c(C)n1` [Compound I-268], the values for the Ki in test [1] (setting [3]) and in test [2] were 0.958 nM and 0.589 nM, respectively.

As for `COCc1nc(C)c(-c2cc(Nc3ncc(C(F)(F)F)cc3F)ncc2OCCO)c(C)n1` [Compound I-199], the Ki in test [1] (setting [3]) was determined as 6.09 nM; in test [2], 5.98 nM.

On to `Cn1ncc(Br)c1-c1cc(Nc2ncc(OC(F)F)cn2)ncc1OCCO` [Compound I-286], for which the Ki was found to be 0.6 nM in test [1] (setting [3]) and 3.22 nM in test [2].

As to `Cc1cnn(C)c1-c1nc(Nc2ccc(C(F)(F)F)cc2)c(F)cc1OCCO` [Compound I-283], the Ki came to 0.267 nM in test [1] (setting [3]) and 2.41 nM in test [2].

`Cc1nc(C)c(-c2cc(Nc3ncc(C(F)(F)F)cc3F)c(F)cc2OC[C@H](C)O)c(C)n1` [Compound I-197]: the Ki in test [1] (setting [3]) was found to be 2.83 nM; in test [2] it was 65.6 nM.

`COCc1nc(C)c(-c2nc(Nc3ccc(C(F)(F)F)c(OC)n3)c(F)cc2OCCO)c(C)n1` [Compound I-394]: the values for the Ki in test [1] (setting [3]) and in test [2] were 1.34 nM and 2.16 nM, respectively.

Regarding `COCc1nc(C)c(-c2cc(Nc3ncc(-c4ccc(C#N)cc4)cc3Cl)ncc2OCCO)c(C)n1` [Compound I-241], the values for the Ki in test [1] (setting [3]) and in test [2] were 0.799 nM and 0.637 nM, respectively.

`COCc1nc(C)c(-c2cc(Nc3ncc(-n4cc(Cl)cn4)cc3Cl)ncc2OCCO)c(C)n1` [Compound I-236]: the Ki in test [1] (setting [3]) turned out to be 1.24 nM; in test [2], 0.727 nM.

For the compound `Cn1ncc(Br)c1-c1nc(Nc2ccc(Cl)c(Cl)c2)ncc1OCCO` [Compound I-344], the Ki in test [1] (setting [3]) was 0.26 nM; in test [2] it was 6.63 nM.

With `Cc1cc(CO)ccc1-c1cc(Nc2ncc(C(F)(F)F)cc2F)ncc1OCCO` [Compound I-372], the results for the Ki in test [1] (setting [3]) and in test [2] were 0.847 nM and 9.14 nM, respectively.

Take `COCc1nc(C)c(-c2cc(Nc3ncc(-c4nc(C(F)(F)F)co4)cc3Cl)ncc2OCCO)c(C)n1` [Compound I-240]: the inhibitory constant (Ki) was determined as 2.05 nM in test [1] (setting [3]) and 1.54 nM in test [2].

As for `Cc1nc(C)c(-c2cc(Nc3ncc(C(F)(F)F)cc3C)ncc2OCCO)c(C)n1` [Compound I-389], the Ki in test [1] (setting [3]) was 1.2 nM; in test [2], 2.41 nM.
